Each structure is given as a SMILES string. Like-named read-outs stand apart in the source and are kept apart here. Bounds are passed on as bounds.

The target in this assay is T1, CCR4 (Homo sapiens, UniProt P51679).
T1 construct: cells expressing CCR4 (e.g., CEM cells, available from the ATCC); host or cells: CEM cells
T1 sequence (P51679 1-360): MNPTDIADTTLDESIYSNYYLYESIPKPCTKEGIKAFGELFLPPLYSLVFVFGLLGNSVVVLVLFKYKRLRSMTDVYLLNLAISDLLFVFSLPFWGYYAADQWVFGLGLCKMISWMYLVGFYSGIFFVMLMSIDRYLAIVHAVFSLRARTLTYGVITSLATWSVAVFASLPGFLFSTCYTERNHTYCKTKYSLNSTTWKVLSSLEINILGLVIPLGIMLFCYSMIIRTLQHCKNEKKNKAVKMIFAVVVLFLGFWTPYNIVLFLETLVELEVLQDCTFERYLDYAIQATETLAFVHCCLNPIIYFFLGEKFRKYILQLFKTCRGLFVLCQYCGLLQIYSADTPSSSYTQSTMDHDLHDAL
The assay can be described thus: CCR4 binding assay: inhibition of 125I-TARC binding to cells expressing CCR4 (e.g., CEM cells). The text has this:
This example illustrates a CCR4 binding assay that can be used for evaluating the compounds of the present invention.
Detection of Radiolabelled TARC and/or MDC Binding to CCR4
^125I-labelled TARC and MDC are available from commercial sources (e.g., Amersham-Pharmacia or Perkin Elmer Life Sciences). All buffers and materials are available from commercial sources (e.g., Gibco BRL, Sigma). To measure binding of ^125I-TARC or ^125I-MDC to cells expressing CCR4 (e.g., CEM cells, available from the ATCC), the ^125I-TARC or ^125I-MDC is diluted to a concentration of approximately 200 pM in a buffered saline solution (e.g., RPMI supplemented with 0.5% bovine serum albumin), and added to an equal volume of a suspension of cells (e.g., CEM cells at 5×10^6 cells/mL). The resulting mixture is incubated for a period of time (e.g., 2 hours). The unbound ^125I-TARC or ^125I-MDC is separated from the cells by filtration, e.g., by passage through GF/B filter plate (Packard Biosciences) pre-treated with 0.3% polyethyleneimine (Sigma), using a Packard Filtermate 96 (Packard Biosciences). The amount of ^125I-TARC or ^125I-MDC retained with the cells on the filterplate is measured by adding a small amount of scintillation fluid (e.g., 50 μL of Microscint-20, obtained from Packard Biosciences), and reading scintillation on appropriate detection equipment, e.g., a Packard TopCount 383 (Packard Biosciences).
Non-specific binding of ^125I-TARC or ^125I-MDC can be estimated by measuring the amount of ^125I-TARC or ^125I-MDC retained with the cells on the filterplate when the assay is performed in the presence of a large excess of unlabelled TARC or MDC.
Inhibition of ^125I-TARC or ^125I-MDC binding to CCR4 is defined as a decrease in the retention of ^125I-TARC or ^125I-MDC to the cells on the filterplate.
The assay described above varies only moderately from standardly used procedures, e.g., Imai et al. (1997) J. Biol. Chem. 272:15036–15042, Imai et al. (1998) J. Biol. Chem. 273:1764–1768.

Setting [1] is: CCR4 antagonist activity, inhibition of 125I-TARC binding, read-out: IC50.

As to `CC(C)(C)c1csc(Nc2ccccc2N2CCOCC2)n1` [Compound 1], the IC50 (usually the concentration needed to halve the response being measured) under setting [1] was < 1 µM.
For the molecule `Cc1cccc(Nc2nc(C(C)(C)C)cs2)c1C` [Compound 2], the IC50 under setting [1] was > 1 µM.
The same measure, in the same setting: as for `CC(C)(C)c1csc(NCc2ccccc2)n1` [Compound 3], the figure is < 1 µM; as for `CC(C)(C)c1csc(Nc2ccc(Cl)c3ccccc23)n1` [Compound 4], < 1 µM; as for `CC(C)(C)c1csc(Nc2cccc3c2CCCC3)n1` [Compound 5], > 1 µM.
On the same count and under the same terms, the value for `Cc1c(Br)cccc1Nc1nc(C(C)(C)C)cs1` [Compound 6] was > 1 µM.
Same read-out and setting: as for `CC(C)(C)c1csc(Nc2cccc3ncccc23)n1` [Compound 7], the figure is < 1 µM; as for `CC(C)(C)Cc1csc(Nc2cccc3ccccc23)n1` [Compound 8], > 1 µM.
`CCCc1sc(Nc2cccc3ccccc23)nc1C(C)(C)C` [Compound 9]: the IC50 under setting [1] is > 1 µM.
Still for that read-out and setting: the value for `Cc1sc(Nc2cccc3ccccc23)nc1C(C)(C)C` [Compound 10] was > 1 µM; that for `CC(C)(C)c1csc(Nc2cccc3ccccc23)n1` [Compound 11] was > 1 µM; that for `CC(C)c1csc(Nc2cccc3ccccc23)n1` [Compound 12] was > 1 µM.
Same read-out and setting: as for `CCOC(=O)CC(C)(C)c1csc(Nc2cccc3ccccc23)n1` [Compound 13], the figure is > 1 µM; as for `CC(=O)c1csc(Nc2cccc3ccccc23)n1` [Compound 15, 4-Acetoyl-2-naphthylamino thiazole], > 1 µM.
Turning to `Clc1ccc2nc(Nc3cccc4ccccc34)sc2c1` [Compound 18], the IC50 was > 1 µM.
For the molecule `c1ccc(CN2CCc3sc(Nc4cccc5ccccc45)nc3C2)cc1` [Compound 19], under setting [1], the IC50 was < 1 µM.
Same read-out and setting: as for `CC(C)(C)c1csc(Nc2cccnc2CCCC2CCCC2)n1` [Compound 20, (4-tert-Butyl-thiazol-2-yl)-[2-(3-cyclopentyl-propyl)-pyridin-3-yl]-amine], the figure is > 1 µM.
For the molecule `Cn1ccc2c(Nc3nc(C(C)(C)C)cs3)cccc21` [Compound 21, (4-tert-Butyl-thiazol-2-yl)-(1-methyl-1H-indol-4-yl)-amine], the IC50 under setting [1] is < 1 µM.
Same read-out and setting: the value for `Cn1ccc2c(Nc3nc(CN(Cc4ccccc4OC(F)(F)F)CC4CCCCC4)cs3)cccc21` [Compound 24, (4-{[Cyclohexylmethyl-(2-trifluoromethoxy-benzyl)-amino]-methyl}-thiazol-2-yl)-(1-methyl-1H-indol-4-yl)-amine] was < 1 µM; that for `FC(F)(F)c1ccccc1CN(Cc1csc(Nc2cccc3ncccc23)n1)CC1CCCCC1` [Compound 35] was < 1 µM; that for `Cc1cccc(Nc2nc(CN(CC(C)C)CC(C)C)co2)c1C` [Compound 45, {4-[(Diisobutylamino)-methyl]-oxazol-2-yl}-(2,3-dimethyl-phenyl)-amine] was < 1 µM.
For the molecule `CC(C)CCCc1ccccc1Nc1nc(C(C)(C)C)cs1` [Compound 49], under setting [1], the half-inhibitory concentration (IC50) is < 1 µM.

The values are drawn from patent publication US7144903B2, “CCR4 antagonists” (Amgen Inc., priority 2001, dated 2006).
